Test results: patent US12692221B2 (priority 2024, dated 2026)

Assays:
M2 (h) = biological target: T1, M2 (h) (Homo sapiens, UniProt P08172); test: Radioligand binding M2 (h) (antagonist radioligand), [^3H]AF-DX 384, CHO cells
T1 construct: expressed in transfected cells; host or cells: CHO cells
T1 sequence (P08172 1-466): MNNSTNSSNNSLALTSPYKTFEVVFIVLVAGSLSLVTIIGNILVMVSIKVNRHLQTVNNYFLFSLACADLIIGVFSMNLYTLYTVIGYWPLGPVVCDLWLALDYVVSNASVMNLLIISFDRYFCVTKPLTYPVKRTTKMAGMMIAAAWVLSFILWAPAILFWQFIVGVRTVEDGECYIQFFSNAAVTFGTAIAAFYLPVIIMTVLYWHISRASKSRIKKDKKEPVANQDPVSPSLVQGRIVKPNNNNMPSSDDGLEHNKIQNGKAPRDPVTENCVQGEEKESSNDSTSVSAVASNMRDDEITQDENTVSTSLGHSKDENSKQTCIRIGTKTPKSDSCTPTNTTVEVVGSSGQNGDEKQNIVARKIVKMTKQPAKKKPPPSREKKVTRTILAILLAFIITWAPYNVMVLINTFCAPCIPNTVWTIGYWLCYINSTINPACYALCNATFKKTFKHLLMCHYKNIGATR
Procedure: (§1) Methods—Binding Assays: In vitro binding assays were performed using human recombinant receptors expressed in mammalian cell lines. Receptors were expressed in either HEK-293 or CHO cells depending on the target, and assay conditions (radioligand, concentration, nonspecific competitor, temperature, and incubation time) were optimized for each receptor. All assays were conducted in triplicate, and specific binding was quantified by scintillation counting as the detection method for each listed assay.
(§2) Specific binding was expressed as a percentage of control-specific binding, and percent inhibition was calculated using the formula in Ex. 8 above. Half-maximal inhibitory concentrations (IC50) were determined by non-linear regression analysis of the inhibition curves using the Hill equation (see Ex. 8). Inhibition constants (Ki) were calculated using the Cheng-Prusoff equation (see Ex. 8). KD values used in these calculations had been previously established for each receptor under the assay conditions (see Table 6). Data analysis was performed using software developed at Cerep and validated against SigmaPlot 4.0 for Windows.

BZD (central) = test: Radioligand binding BZD (central) (agonist radioligand), [^3H]flunitrazepam, rat cerebral cortex
5-HT2A = 5-HT2A (Homo sapiens, UniProt P28223); test: Calcium flux agonist assay, 293T cells; type: cell-based; parameters: expressed in transfected cells; host or cells: Human Embryonic Kidney (293T) cells, transient; details: for Emax: HEK-293T, calcium flux, 5-HT2A, normalized to maximum 5-HT response
Chain of 5-HT2A (P28223 whole entry, looked up): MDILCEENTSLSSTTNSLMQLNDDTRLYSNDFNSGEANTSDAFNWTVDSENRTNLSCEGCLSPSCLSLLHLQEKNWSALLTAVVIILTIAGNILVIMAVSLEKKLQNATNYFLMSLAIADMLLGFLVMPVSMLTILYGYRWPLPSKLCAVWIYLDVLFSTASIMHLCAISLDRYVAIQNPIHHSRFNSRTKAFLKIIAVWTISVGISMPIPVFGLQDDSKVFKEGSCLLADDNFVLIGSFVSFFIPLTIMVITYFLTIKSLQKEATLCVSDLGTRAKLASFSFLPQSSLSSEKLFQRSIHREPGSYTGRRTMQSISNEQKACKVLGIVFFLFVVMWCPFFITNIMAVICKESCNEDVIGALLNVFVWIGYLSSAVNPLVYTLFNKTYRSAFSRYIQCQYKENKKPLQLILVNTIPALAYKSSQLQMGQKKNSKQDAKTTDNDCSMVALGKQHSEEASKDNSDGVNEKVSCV

5-HT1A (h) = biological target: T2, 5-HT1A (h) (Homo sapiens, UniProt P08908); test: Radioligand binding 5-HT1A (h) (agonist radioligand), [^3H]8-OH-DPAT, HEK-293 cells
T2 construct: expressed in transfected cells; host or cells: HEK-293 cells
T2 sequence (P08908 1-422): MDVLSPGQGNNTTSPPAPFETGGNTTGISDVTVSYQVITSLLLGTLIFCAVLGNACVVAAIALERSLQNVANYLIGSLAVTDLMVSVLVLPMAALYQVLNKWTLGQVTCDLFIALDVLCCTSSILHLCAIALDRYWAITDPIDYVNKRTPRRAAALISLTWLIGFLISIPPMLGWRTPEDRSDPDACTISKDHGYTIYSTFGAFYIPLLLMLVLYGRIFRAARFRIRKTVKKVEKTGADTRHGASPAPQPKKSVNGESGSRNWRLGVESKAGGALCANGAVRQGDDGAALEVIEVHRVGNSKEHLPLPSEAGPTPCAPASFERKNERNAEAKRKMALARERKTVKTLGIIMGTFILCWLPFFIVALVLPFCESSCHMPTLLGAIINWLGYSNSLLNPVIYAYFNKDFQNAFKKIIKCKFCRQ
Procedure: as §1, §2

5-HT2B = 5-HT2B (Homo sapiens, UniProt P41595); test: IP-One HTRF IP-1 accumulation functional assay, 5-HT2B/HEK293; type: cell-based; parameters: host or cells: HEK293
Chain of 5-HT2B (P41595 whole entry): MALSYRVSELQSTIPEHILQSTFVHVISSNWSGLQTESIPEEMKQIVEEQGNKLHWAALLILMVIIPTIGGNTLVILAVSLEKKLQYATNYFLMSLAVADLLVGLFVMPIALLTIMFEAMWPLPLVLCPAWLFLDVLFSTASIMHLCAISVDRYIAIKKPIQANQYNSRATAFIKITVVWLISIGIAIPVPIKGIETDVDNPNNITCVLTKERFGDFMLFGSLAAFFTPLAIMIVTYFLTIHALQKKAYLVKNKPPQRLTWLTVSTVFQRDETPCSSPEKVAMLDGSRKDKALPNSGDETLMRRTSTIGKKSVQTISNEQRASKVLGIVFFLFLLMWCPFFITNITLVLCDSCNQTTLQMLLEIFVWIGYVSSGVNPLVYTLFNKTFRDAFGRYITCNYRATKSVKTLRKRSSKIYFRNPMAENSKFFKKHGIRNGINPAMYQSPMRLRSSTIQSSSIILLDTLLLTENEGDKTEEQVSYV
Procedure: Methods (5-HT2B IP-One Functional Activity Assays): Intracellular accumulation of IP-1 was measured using an IP-One HTRF) assay kit (Cat. #62IPAPEJ, Cisbio) at WuXi AppTec Co. Ltd. (Hong Kong) Discovery Biology Unit according to their standard protocols. Briefly, 5-HT2B/HEK293 were plated in a 384-well plate and incubated at 37° C. and 5% CO2 overnight. The reference compounds and screening compounds were 3.16-fold serially diluted in 100% DMSO for 10 points using Bravo. 70 nL of compounds were added to the cell plate using Echo555. Incubated for 60 minutes at 37° C. Added 3 μL of IP-1 d2 Reagent working solution and 3 μL of IP-1 Tb Cryptate Antibody working solution to all wells. The plates were incubated for 1 hour at room temperature and read on for fluorescence at 620 nm and 665 nm on an EnVision Multimode Plate Reader (PerkinElmer). The ratio of the acceptor and donor emission signals (665/620) were calculated for each individual well and substituted into the standard curve to obtain the log concentration of IP level. After converting to the antilog base IP-1, the average background control signal was subtracted from each well and values were normalized to the maximal response of 5-HT at 3 μM (100%). % MAX was calculated by taking the average normalized maximal response at the highest concentration tested. Data were analyzed using the four-parameter nonlinear regression curve-fitting function in GraphPad Prism 5 (GraphPad Software, San Diego, CA) to generate potency (EC50) values. Parameter constraint “Top=100” was used in the analysis of 5-HT2B IP-1. Represented plots show normalized IP-1 values versus compound concentrations; the corresponding numerical data are parameter estimates for the concentration-response curve using the 4-parameter nonlinear regression curve-fitting function in GraphPad Prism 10. “Top=100” parameter constraint was not enabled for the represented plot analysis.

For `COCc1cc(CCN)c(O)cc1CC(C)C` [2CiBu-2OH-5MM, 2-(2-aminoethyl)-5-isobutyl-4-(methoxymethyl)phenol], the “Mean Percent Inhibition of Control Specific Binding” value (“Mean Percent Inhibition” below) (M2 (h)) was 14.9%, the “Mean Percent Inhibition” value (BZD (central)) was 8.3% and the EC50 (5-HT2A) was 0.0559 µM. The Emax (5-HT2A) was 115% and the “Mean Percent Inhibition” value (5-HT1A (h)) was 34.8%.

With `COCCc1cc(CCN)c(OC)cc1Br` [Compound 2CB-5ME, reference compound] the EC50 (5-HT2B) was 0.131 µM, the “Mean Percent Inhibition” value (M2 (h)) was 21.5% and the “Mean Percent Inhibition” value (BZD (central)) was −3.0%. For the same compound, the “Mean Percent Inhibition” value (5-HT1A (h)) was 98.2%.

In the case of `COCc1cc(CCN)c(OC)cc1Br` [Compound 2CB-5MM, 2-(4-bromo-2-methoxy-5-(methoxymethyl)phenyl)ethan-1-amine], the EC50 (5-HT2B) is reported as 0.0786 µM, the “Mean Percent Inhibition” value (M2 (h)) is reported as 10.0% and the “Mean Percent Inhibition” value (BZD (central)) is reported as −1.8%. The EC50 (5-HT2A) was 0.00068 µM, the Emax (5-HT2A) was 114% and the “Mean Percent Inhibition” value (5-HT1A (h)) was 95.1%.

`COCc1cc(CCN)c(OC)cc1CC(C)C` [Compound 2CiBu-5MM, 2-[4-isobutyl-2-methoxy-5-(methoxymethyl)phenyl]ethanamine] was tested, and the EC50 (5-HT2B) was 0.825 µM, the “Mean Percent Inhibition” value (M2 (h)) was 16.0% and the “Mean Percent Inhibition” value (BZD (central)) was 6.6%. The EC50 (5-HT2A) was 0.0422 µM, the Emax (5-HT2A) was 111% and the “Mean Percent Inhibition” value (5-HT1A (h)) was 76.5%.
